# Assay results reported in patent EP3298025B1, “NEW AMINO ACID SEQUENCES WITH MI[…] DERIVED FROM NAJA ATRA CARDIOTOXIN 1 (CTX-1)” (Università degli Studi di Parma, priority 2015, dated 2016).
# Values joined by “and” are separate entries in the source; they are usually repeats but may differ in a detail not shown here. Equal entries are not always repeated. Residues, ends and D or L forms follow the SMILES beside them.
# Columns and labels:
# Type in all cases: cell-based
# E. coli ML-35pYC = experiment: membrane permeabilization assay (CENTA outer membrane, ONPG inner membrane); conditions: peptide 12.5 µg/ml; absorbance every 10 minutes for 240 minutes
# Procedure: Methods: to test the bacterial membrane permeabilization caused by the peptides of the invention, E. coli ML-35pYC strain was used. This bacterial strain express ampicillin resistence, a constitutive expression of cytoplasmic β-galactosidase and is engineered with a plasmid for a periplasmic β-lactamase synthesis. Sixty microliters (60 µl) of bacterial suspension, containing E. coli ML-35pYC strain, were added to 60 µl of ONPG solution (15 mM) or to 60 µl of CENTA (1,5 mM) diluted in phosphate buffer. Subsequently 120 µl of the examined peptide were added, to obtain a final concentration of 12.5 µg/ml (NCP-2=5,4 µM, NCP-3=5.2 µM). The absorbance value was registered at […] for ONPG and at 405 nm for CENTA, every 10 minutes for 240 minutes to assess the reaction's kinetics.
# [1] = test system: Candida glabrata ATCC 2001; experiment: micro-dilution in liquid medium and transplant on solid medium, yeasts; conditions: 2 hours at 37°C, transplant on agar Sabouraud
# Procedure: (§1) Candida albicans ATCC 10231, Candida glabrata ATCC 2001 and Malassetia pachydermatis ATCC 14522 were cultivated in Czapek-Dox broth (DIFCO) medium for 48-72 hours. On the day of the test the fungal culture was centrifuged at 1700G for 15 minutes and the pellet resuspended in phosphate buffer, then put in agitation on an electric vortex to disrupt fungal cell aggregations. The suspension was diluted to get a final optical density of 0,5 of the McFarland scale (about 1-5x10^6 cell/ml) (Branda J.A., Krantz A. Effect of yeast on automated cell counting. Am J Clin Pathol., 2006:126, 248-254.).
# (§2) Peptides ability to inhibit the fungal growth in liquid cultures was tested. 50 µl of each peptides solutions of about 0.2-50 µM were added in microtiter plates with 96 wells with U-shaped bottom, with liquid culture medium and one of these fungi: Candida albicans ATCC 10231, Candida glabrata ATCC 2001 and Malassetia pachydermatis ATCC 14522. After 2 hours of incubation at 37°C, fungal suspensions were plated on solid culture medium, agar Sabouraud. Fungal cultures were cultivated without peptides as growth control.
# (§3) the fungal suspension and peptides at differing concentrations were in contact for about 2 hours at 37°C. After this incubation, 20 µl from every well of the plate were transplanted on solid culture medium, agar Sabouraud. The inoculum was evenly distributed on the agar with the aid of a sterile disposable handle. After an incubation time of 24 hours at 37°C, the fungal colonies (cfu) were counted.
# [2] = test system: Candida albicans ATCC 10231; experiment: as above; conditions: 2 hours at 37°C, transplant on agar Sabouraud
# Procedure: as §1, §2, §3
# [3] = test system: Malassetia pachydermatis ATCC 14522; experiment: as above; conditions: 2 hours at 37°C, transplant on agar Sabouraud
# Procedure: as §1, §2, §3
# [4] = test system: Acinetobacter baumanii from cloaca (herpetological); experiment: micro-dilution in liquid medium and transplant on agar, Gram-negative bacteria; conditions: 2 hours at 37°C, transplant on agar
# Procedure: (§4) For each bacterial strain 3-5 morphologically similar colonies from fresh cultures were taken and inoculated in Brain Heart Infusion broth, then incubated at 37°C in agitation at 225 r.p.m. for about 3-4 hours. Then the bacterial suspension was centrifuged at 1000 G for 20 minutes and the pellet resuspended in phosphate buffer pH 7, 10 mM. The turbidity of the bacterial suspension was measured using a spectrophotometer with absorbance of 600 nm; the range 0.08-0.13 equates to about 10^8 cfu/ml. The bacterial suspension was diluted 1:100 in phosphate buffer 10mM to obtain a bacterial concentration of about 10^6 cfu/ml. Within 30 minutes 50 µl of the suspension (10^6 cfu/ml) were inoculated in each well of the microtiter plate, to obtain a bacterial concentration of about 5x10^5 cfu/ml.
# (§5) The peptides ability to inhibit the bacterial growth in liquid cultures was tested. 50 µl of each peptides solutions of about 0,2-50 µM were added in microtiter plates with 96 wells with U-shaped bottom, containing the liquid culture medium and one of these bacterial strains: E coli ATCC 25922, Pseudomonas. Aeruginosa ATCC 27853, Proteus mirabilis ATCC 14153, Burkholderia cepacia ATCC 17759, Moraxella catharralis ATCC 25238 or other wild strains of Klebsiella pneumoniae subsp. pneumoniae, Enterobacter cloacae, Acinetobacter baumanii.
# (§6) After 2 hours incubation at 37°C, the bacteria were transplanted on solid medium. As a growth reference, bacterial cultures were grown in absence of peptides.
# (§7) The bacterial suspension and peptides were put in contact for 2 hours at 37°C, with differing concentrations of the peptide. Then 20 µl from each well of the plate were taken and transferred on solid culture medium, McConkey agar. The inoculum was uniformly distributed on the agar medium with aid of a sterile disposable handle. After an incubation time of 24 hours at 37°C, the bacterial colonies (cfu) were counted.
# [5] = test system: Burkholderia cepacia ATCC 17759; experiment: as above; conditions: 2 hours at 37°C, transplant on agar
# Procedure: as §4, §5, §6, §7
# [6] = test system: Klebsiella pneumoniae subsp. pneumoniae (herpetological); experiment: as above; conditions: 2 hours at 37°C, transplant on agar
# Procedure: as §4, §5, §6, §7
# [7] = test system: Moraxella catharralis ATCC 25238; experiment: as above; conditions: 2 hours at 37°C, transplant on agar
# Procedure: as §4, §5, §6, §7
# [8] = test system: Enterobacter cloacae (herpetological); experiment: as above; conditions: 2 hours at 37°C, transplant on agar
# Procedure: as §4, §5, §6, §7
# [9] = test system: Acinetobacter baumanii from cloaca (ornithological); experiment: as above; conditions: 2 hours at 37°C, transplant on agar
# Procedure: as §4, §5, §6, §7
# [10] = test system: Acinetobacter baumanii from skin (herpetological); experiment: as above; conditions: 2 hours at 37°C, transplant on agar
# Procedure: as §4, §5, §6, §7
# [11] = test system: Pseudomonas aeruginosa ATCC 27853; experiment: as above; conditions: 2 hours at 37°C, transplant on agar
# Procedure: as §4, §5, §6, §7
# E. coli ATCC 25922 = experiment: as above; conditions: 2 hours at 37°C, transplant on agar
# Procedure: as §4, §5, §6, §7
# [12] = test system: Proteus mirabilis ATCC 14153; experiment: as above; conditions: 2 hours at 37°C, transplant on agar
# Procedure: as §4, §5, §6, §7
# [13] = test system: Acinetobacter baumanii (human strain); experiment: as above; conditions: 2 hours at 37°C, transplant on agar
# Procedure: as §4, §5, §6, §7
smiles,measurement,setting,value
"CC[C@H](C)[C@H](NC(=O)[C@H](CCCCN)NC(=O)[C@H](Cc1ccc(O)cc1)NC(=O)[C@H](CS)NC(=O)[C@H](CC(C)C)NC(=O)[C@H](CC(N)=O)NC(=O)[C@H](CCCCN)NC(=O)CNC(=O)[C@H](C)NC(=O)[C@@H]1CCCN1C(=O)[C@H](CS)NC(=O)[C@@H](NC(=O)[C@H](CCCCN)NC(=O)[C@H](CO)NC(=O)[C@H](C)NC(=O)[C@@H](NC(=O)[C@@H]1CCCN1C(=O)[C@@H](NC(=O)[C@H](CC(C)C)NC(=O)[C@@H](N)CCCCN)[C@@H](C)CC)[C@@H](C)CC)[C@@H](C)O)C(=O)O [NCP-0, K LIPIA SKT CPA GKN LCY KI] (H-KLIPIASKTCPAGKNLCYKI-OH; N-terminus and C-terminus assumed)",damage to the inner membrane (ONPG),E. coli ML-35pYC,had not demonstrated activity on outer or inner membrane
same,damage to the outer membrane (CENTA),E. coli ML-35pYC,had not demonstrated activity on outer or inner membrane
same,LD90,[1],> 100 µg/ml and > 46.3 µM
same,LD99,[1],> 200 µg/ml and > 92.6 µM
same,LD90,[2],> 100 µg/ml and > 46.3 µM
same,LD99,[2],> 200 µg/ml and > 92.6 µM
same,LD90,[3],150.82 µg/ml and 69.8 µM
same,LD99,[3],151.87 µg/ml and 70.3 µM
same,LD90,[4],142.80 µg/ml and 66.1 µM
same,LD99,[4],202.98 µg/ml and 94 µM
same,LD90,[5],39.35 µg/ml and 17.8 µM
same,LD99,[5],39.43 µg/ml and 18.3 µM
same,LD90,[6],> 100 µg/ml and > 46.3 µM
same,LD99,[6],> 200 µg/ml and > 92.6 µM
same,LD90,[7],0.8 µg/ml and 0.4 µM
same,LD99,[7],1.6 µg/ml and 0.7 µM
same,LD90,[8],> 100 µg/ml and > 46.3 µM
same,LD99,[8],> 200 µg/ml and > 92.6 µM
same,LD90,[9],126.205 µg/ml and 58.4 µM
same,LD99,[9],"127,26 µg/ml and 59 µM"
same,LD99,[10],117.96 µg/ml and 54.6 µM
same,LD90,[11],> 100 µg/ml and > 46.3 µM
same,LD99,[11],> 200 µg/ml and > 92.6 µM
same,LD90,E. coli ATCC 25922,152.02 µg/ml and 70 µM
same,LD90,[12],> 100 µg/ml and > 46.3 µM
same,LD99,[12],> 200 µg/ml and > 92.6 µM
same,LD90,[13],123.77 µg/ml and 57.3 µM
same,LD99,[13],131.55 µg/ml and 61 µM
